According to patent US10766912B2 (priority 2017, dated 2020):
Like-named read-outs stand apart in the source and are kept apart here.

Assays:
Format in all cases: cell-based
[1] = Assay Example 2: cell viability assay (CellTiter-Fluor), GT1b wild-type replicon plate; details: human, Huh-7 cells with GT1b wild-type replicon, read-out: CC50 Value GT1b-wt
Experimental: (§1) Cells: Huh-7 cells are liver cancer cell strains (from AppTec, USA), HCV GT1a and GT1b wild type (wt) replicons, GT1b/3a, GT1b/4a, GT1b/5a and GT1b/6a NS5A chimeric replicons.
(§2) Treatment of Compound: According to the assay final concentrations of the compounds in Table 5, DMSO stock solutions of the compounds were diluted and then added to a 96-well assay plate. The final concentration of DMSO was 0.5%.
(§3) The preparation of cells: After replicon plasmid DNA was linearized with a corresponding restriction enzyme, the DNA was transcribed into RNA by using T7 RNA polymerase. Replicon RNA prepared by transcription in vitro was transfected into Huh-7 cells by electroporation. Transfected cells were seeded at a density of 10,000 cells per well into the 96-well assay plate containing the diluted compounds, and then placed in a 37° C. incubator with 5% CO2 and cultured for 3 days.
(§4) Cell viability assay: A cell growth fluorescent titration detection reagent CellTiter-Fluor was added to the 96-well plate of the GT1b wild-type replicon. After the cells were cultured for 1 hour in a 37° C. incubator with 5% CO2, the fluorescence signal value (RFU) was detected by Envision, and the original data (RFU) was used for the calculation of the cytotoxicity of the compounds.
(§5) The cytotoxicity of the compounds was calculated by using the equation below: Cell Viability %=(CPD−HPE)/(ZPE−HPE)×100%* The activity of the compounds was calculated by using the equation below: Inhibition %=(ZPE−CPD)/(ZPE−HPE)×100%*
(§6) The cell viability percentages (Viability %) and the inhibition percentages (Inhibition %) were imported into GraphPad Prism software, respectively, and curves were fitted by using nonlinear regression method to obtain the corresponding curves of the compounds, and the cytotoxicity (CC50) thereof and the inhibitory activity (EC50) values against the HCV replicon thereof.

[2] = tested on: HCV GT1b/3a NS5A chimeric replicon; test: Assay Example 2: activity against GT1b/3a NS5A chimeric replicon; details: Hepatitis C virus, Huh-7, 72 h, read-out: EC50 Value GT1b/3a-NS5A-wt
Experimental: as §1, §2, §3
(§7) Drug activity assay: Luminescence signal value (RLU) was detected with Envision within 15 minutes using the luciferase assay reagent Britelite plus, and the original data (RLU) was used for the calculation of the activity of the compounds.
as §5, §6

[3] = tested on: HCV GT1b wild type (wt) replicon; test: Assay Example 2: activity against HCV GT1b wild-type replicon; details: Hepatitis C virus, read-out: EC50 Value GT1b-wt
Experimental: as §1, §2, §3, §7, §5, §6

[4] = tested on: HCV GT1b/6a NS5A chimeric replicon; test: Assay Example 2: activity against GT1b/6a NS5A chimeric replicon; details: Hepatitis C virus, Huh-7, 72 h, read-out: EC50 Value GT1b/6a-NS5A-wt
Experimental: as §1, §2, §3, §7, §5, §6

[5] = tested on: HCV GT1a wild-type replicon; test: Assay Example 1: activity against HCV GT1a wild-type replicon; details: Hepatitis C virus, 72 h, Huh 7 cells, 3 days, luciferase
Experimental: (§8) Cells: Huh 7 cell line and HCV GT1b/3a and GT1b/6a NS5A chimeric replicons and GT1b and GT1a wild-type replicon RNA.
(§9) Treatment of Compound: According to the assay final concentrations of the compounds in Table 2, DMSO stock solutions of the compounds were diluted and then added to a 96-well assay plate. The final concentration of DMSO was 0.5%.
as §3, with “T7RNA” for “T7 RNA”, “then the plate was” for “then”
as §7
(§10) The activity of the compounds was calculated by using the equation below: Inhibition %=(ZPE−CPD)/(ZPE−HPE)×100%*
as §6, with “thereof and inhibitory activity” for “thereof and the inhibitory activity”

[6] = tested on: HCV GT1b/3a NS5A chimeric replicon; test: Assay Example 1: activity against HCV GT1b/3a NS5A chimeric replicon; details: Hepatitis C virus, Huh-7, 72 h, read-out: EC50 value GT1b/3a NS5A chimeric replicon
Experimental: as §8, §9
as §3, with “T7RNA” for “T7 RNA”, “then the plate was” for “then”
as §7, §10
as §6, with “thereof and inhibitory activity” for “thereof and the inhibitory activity”

[7] = tested on: HCV GT1b/6a NS5A chimeric replicon; test: Assay Example 1: activity against HCV GT1b/6a NS5A chimeric replicon; details: Hepatitis C virus, Huh-7, 72 h, read-out: EC50 value GT1b/6a NS5A chimeric replicon
Experimental: as §8, §9
as §3, with “T7RNA” for “T7 RNA”, “then the plate was” for “then”
as §7, §10
as §6, with “thereof and inhibitory activity” for “thereof and the inhibitory activity”

in vitro = details: human; Huh 7 cells with GT1b wild-type replicon, 3 days, CellTiter-Fluor
Experimental: as §8, §9
as §3, with “T7RNA” for “T7 RNA”, “then the plate was” for “then”
as §4
The cytotoxicity of the compounds was calculated by using the equation below: Cell Viability %=(CPD−HPE)/(ZPE−HPE)×100%*
as §6, with “thereof and inhibitory activity” for “thereof and the inhibitory activity”

[8] = tested on: HCV GT1b wild-type replicon; test: Assay Example 1: activity against HCV GT1b wild-type replicon (luciferase, transient transfection); details: Hepatitis C virus, 72 h, Huh 7 cells, 3 days
Experimental: as §8, §9
as §3, with “T7RNA” for “T7 RNA”, “then the plate was” for “then”
as §7, §10
as §6, with “thereof and inhibitory activity” for “thereof and the inhibitory activity”

[9] = Huh-7 cells transfected with HCV GT1b wild-type replicon RNA
[10] = 72 h, Huh-7 cells, transient transfection, 3 days

Row | Structure (SMILES) | CC50 at 3 days [1, 9] | EC50 [2] | EC50 [3, 10] | EC50 [4] | EC50 [5] | EC50 [6] | EC50 [7] | CC50 (in vitro) | EC50 [8] | CC50 at 3 days [1] | EC50 ([3]; Huh-7, 72 h)
1 | COC(=O)N[C@H](C(=O)N1CCCC1C(=O)Nc1ccc([C@@H]2CC[C@@H](c3ccc(-c4cnc([C@@H]5CCCN5C(=O)[C@@H](NC(=O)OC)[C@@H](C)OC)[nH]4)cc3)N2c2cc(F)c(N3CC[Si](C)(C)CC3)c(F)c2)cc1)[C@@H](C)OC (stereo partly shown) [Compound 8a] | > 0.2 nM | 0.0797 nM | 0.00208 nM | 0.00905 nM |  |  |  |  |  |  | 
2 | COC(=O)N[C@H](C(=O)N1CCC[C@H]1C(=O)Nc1ccc([C@H]2CC[C@H](c3ccc(NC(=O)[C@@H]4CCCN4C(=O)[C@@H](NC(=O)OC)[C@@H](C)OC)cc3)N2c2cc(F)c(N3CC[Si](C)(C)CC3)c(F)c2)cc1)[C@@H](C)OC [Compound 1b, Methyl ((2S,2′S,3R,3′R)-((2S,2′S)-(((((2R,5R)-1-(4-(4,4-dimethylazasilinan-1-yl)-3,5-difluorophenyl)pyrrolidin-2,5-diyl)bis(4,1-phenylene))bis(azanediyl))bis(carbonyl))bis(pyrrolidin-2,1-diyl))bis (3-methoxy-1-oxobutan-1,2-diyl))dicarbamate] |  |  |  |  | 0.012 nM | 0.0048 nM | 0.114 nM | > 0.1 nM | 0.0017 nM |  | 
3 | COC(=O)N[C@H](C(=O)N1CCCC1c1nc2cc([C@H]3CC[C@H](c4ccc(-c5cnc([C@@H]6CCCN6C(=O)[C@@H](NC(=O)OC)[C@@H](C)OC)[nH]5)cc4)N3c3cc(F)c(N4CC[Si](C)(C)CC4)c(F)c3)ccc2[nH]1)[C@@H](C)OC (stereo partly shown) [Compound 15b] | > 0.2 nM | 0.00728 nM | 0.00295 nM |  |  |  |  |  |  |  | 
4 | COC(=O)N[C@H](C(=O)N1CCC[C@H]1C(=O)Nc1ccc([C@H]2CC[C@H](c3ccc(NC(=O)[C@@H]4CCCN4C(=O)[C@@H](NC(=O)OC)[C@@H](C)OC)cc3)N2c2ccc(N3CC[Si](C)(C)CC3)c(F)c2)cc1)[C@@H](C)OC [Compound 2b, Methyl ((2S, 2′S, 3R, 3′R)-((2S, 2′S)-(((((2R, 5R)-1-(4-(4,4-dimethylazasilinan-1-yl)-3-fluorophenyl)pyrrolidin-2,5-diyl)bis(4,1-phenylene))bis(azanediyl))bis(carbonyl))bis(pyrrolidin-2,1-diyl))bis(3-methoxy-1-oxobutan-1,2-diyl))dicarbamate] |  |  |  |  | 0.065 nM | 0.014 nM | 0.454 nM | > 0.1 nM | 0.016 nM |  | 
5 | COC(=O)N[C@H](C(=O)N1CCC[C@H]1C(=O)Nc1ccc([C@@H]2CC[C@@H](c3ccc(NC(=O)[C@@H]4CCCN4C(=O)[C@@H](NC(=O)OC)[C@@H](C)OC)cc3)N2c2ccc(N3CC[Si](C)(C)CC3)c(F)c2)cc1)[C@@H](C)OC [Compound 2a, Methyl ((2S, 2′S, 3R, 3′R)-((2S, 2′S)-(((((2S, 5S)-1-(4-(4,4-dimethylazasilinan-1-yl)-3-fluorophenyl)pyrrolidin-2,5-diyl)bis(4,1-phenylene))bis(azanediyl))bis(carbonyl))bis(pyrrolidin-2,1-diyl))bis(3-methoxy-1-oxobutan-1,2-diyl))dicarbamate] |  |  |  |  | 0.012 nM | 0.006 nM | 0.242 nM | > 0.1 nM | 0.0029 nM |  | 
6 | COC(=O)N[C@H](C(=O)N1CCC[C@H]1c1nc2cc([C@@H]3CC[C@@H](c4ccc5[nH]c([C@@H]6CCCN6C(=O)[C@@H](NC(=O)OC)[C@@H](C)OC)nc5c4)N3c3cc(F)c(N4CC[Si](C)(C)CC4)c(F)c3)ccc2[nH]1)[C@@H](C)OC [Compound 4a] |  |  |  |  | 0.0054 nM | 0.0039 nM | 0.026 nM | > 0.1 nM | 0.011 nM |  | 
7 | COC(=O)N[C@H](C(=O)N1CCC[C@H]1C(=O)Nc1ccc([C@@H]2CC[C@@H](c3ccc(NC(=O)[C@@H]4CCCN4C(=O)[C@@H](NC(=O)OC)[C@@H](C)OC)cc3)N2c2cc(F)c(N3CC[Si]4(CCCCC4)CC3)c(F)c2)cc1)[C@@H](C)OC [Compound 11a] |  | 0.0088 nM |  | 0.00169 nM |  |  |  |  |  | > 0.2 nM | 0.00135 nM
8 | COC(=O)N[C@H](C(=O)N1CCC[C@H]1c1nc2cc([C@H]3CC[C@H](c4ccc5[nH]c([C@@H]6CCCN6C(=O)[C@@H](NC(=O)OC)[C@@H](C)OC)nc5c4)N3c3cc(F)c(N4CC[Si](C)(C)CC4)c(F)c3)ccc2[nH]1)[C@@H](C)OC [Compound 4b] |  |  |  |  | 0.0041 nM | 0.0015 nM | 0.005 nM | > 0.1 nM | 0.0059 nM |  | 
9 | COC(=O)N[C@H](C(=O)N1CCC[C@H]1C(=O)Nc1ccc([C@@H]2CC[C@@H](c3ccc(NC(=O)[C@@H]4CCCN4C(=O)[C@@H](NC(=O)OC)[C@@H](C)OC)cc3)N2c2cc(F)c(N3CC[Si]4(CCCC4)CC3)c(F)c2)cc1)[C@@H](C)OC [Compound 3a] |  | 0.00635 nM |  | 0.0045 nM |  |  |  |  |  | > 0.2 nM | 0.00133 nM
10 | COC(=O)N[C@H](C(=O)N1CCC[C@H]1c1nc2cc([C@H]3CC[C@H](c4ccc5[nH]c([C@@H]6CCCN6C(=O)[C@@H](NC(=O)OC)[C@@H](C)OC)nc5c4)N3c3ccc(N4CC[Si](C)(C)CC4)c(F)c3)ccc2[nH]1)[C@@H](C)OC [Compound 5b] |  |  |  |  | 0.013 nM | 0.0063 nM | 0.016 nM | > 0.1 nM | 0.017 nM |  | 
11 | COC(=O)N[C@H](C(=O)N1CCC[C@H]1C(=O)Nc1ccc([C@@H]2CC[C@@H](c3ccc4nc([C@@H]5CCCN5C(=O)[C@@H](NC(=O)OC)[C@@H](C)OC)[nH]c4c3)N2c2cc(F)c(N3CC[Si](C)(C)CC3)c(F)c2)cc1)[C@@H](C)OC [Compound 6a, Methyl ((2S,3R)-1-((S)-2-(6-((2S,5S)-1-(4-(4,4-dimethylazasilinan-1-yl)-3,5-difluorophenyl)-5-(4-((S)-1-(N-(methoxycarbonyl)-O-methyl-L-threonyl)pyrrolidin-2-formylamino)phenyl)pyrrolidin-2-yl)-1H-benzo[d]imidazol-2-yl)pyrrolidin-1-yl)-3-methoxy-1-oxobutan-2-yl)carbamate] |  |  |  |  | 0.014 nM | 0.0052 nM | 0.23 nM | > 0.1 nM | 0.0057 nM |  | 
12 | COC(=O)N[C@H](C(=O)N1CCC[C@H]1c1nc2cc([C@@H]3CC[C@@H](c4ccc5[nH]c([C@@H]6CCCN6C(=O)[C@@H](NC(=O)OC)[C@@H](C)OC)nc5c4)N3c3ccc(N4CC[Si](C)(C)CC4)c(F)c3)ccc2[nH]1)[C@@H](C)OC [Compound 5a] |  |  |  |  | 0.017 nM | 0.013 nM | 0.174 nM | > 0.1 nM | 0.019 nM |  | 
